From patent publication US9388389B2, “JFH-1 based HCV cell culture systems for NS5A of genotypes 1-7” (Hvidovre Hospital, priority 2009, dated 2016)

Columns and labels:
[1] = tested on: Huh7.5 cells; assay: Spread of infection in culture, anti-Core immunostaining; format: cell-based; details: for percentage of culture infected: day 8 after transfection
Method: (§1) Culturing of Huh7.5 cells was done as described by Gottwein et al. 2007. One day prior to transfection or infection, naïve Huh7.5 cells were plated at 4×10^5/well in 6-well plates. In vitro transcription was carried out for 2 hours with T7 RNA polymerase (Promega) on 5 μg plasmid linearized with XbaI and treated with Mung Bean Nuclease (New England Biolabs, Beverly, Mass., USA) to yield the exact HCV 3′ end. For transfection, 2.5 μg of unpurified RNA transcripts were incubated with 5 μL Lipofectamine2000™ (Invitrogen) in 500 μL Opti-MEM (Invitrogen) for 20 min at room temperature. RNA-Lipofectamine2000™ transfection complexes were left on cells for 16-24 hours before washing. For infection, virus-containing supernatant was left on cells for 6-24 hours. Supernatants collected during experiments were sterile filtered and stored at −80° C.
(§2) Anti-Core immunostaining was done with mouse anti-HCV Core protein monoclonal antibody (B2) (Anogen Mississauga, Ontario, Canada) as primary antibody and Alexa Fluor 594 goat anti-mouse IgG (H+L) (Invitrogen) as secondary antibody. HCV RNA titers were determined by a TaqMan™ real-time PCR assay. Infectivity titers were determined as follows: 6×10^3 naïve Huh7.5 cells were plated per well in a poly-D-lysine coated 96-well plate (Nunc) one day before inoculation with three replicates of individual 10-fold dilutions of cell culture supernatants. Inocula were left on cells for 48 hours and cells were fixed using ice could methanol. After washing, blocking buffer (1% BSA, 0.2% skim milk) was added for 20 min and endogenous peroxidases were inhibited by application of H2O2 for 5 min. Primary antibody (anti-NS3, clone H26, Abcam, Cambridge, UK) diluted 1:1000 was left on cells for 3-4 days. Secondary antibody was ECL anti-mouse IgG HRP-linked whole antibody (GE Healthcare Amersham, Brondby, Denmark). Staining was developed using DAB substrate kit (DAKO, Glostrup, Denmark). The number of focus-forming units (FFU) per well were counted manually (dilutions with 5-100 FFU counted) or automatically. Automatic counting was performed on an ImmunoSpot Series 5 UV Analyzer™ (CTL Europe GmbH, Aalen, Baden-Württemberg, DE) with customized software. From FFU counts in experimental wells, the mean of spot counts of negative control wells was subtracted (typically around 5 spots).

[2] = tested on: Huh7.5 cells; assay: Genetic stability, direct sequencing of complete ORF after passage; details: Table 2; ORF sequenced after passage to naïve cells
Method: RNA was extracted from cell culture supernatant using (Highly Pure Viral Nucleic Acid Kit™, Roche, Mannheim, Del.). RT-PCR was done using SuperScriptIII™ (Invitrogen, Carlsbad, Calif., USA). In 1st round PCR the Advantage 2 PCR Enzyme System was used. Cycle parameters were 35 s at 99° C., 30 s at 67° C. and 10 min (cycle 1-5), 11 min (cycle 6-15), 12 min (cycle 16-25) or 13 min (cycle 26-35) at 68° C. 12˜1 kb products were synthesized in overlapping nested PCRs covering the entire ORF using primer pairs as previously described. Primer pairs 8, 9 and 10 were modified to the genotype specific NS5A sequence (Table 20, SEQ ID NO 163-192). Cycle parameters were 35 s at 99° C. followed by 35 cycles with 35 s at 99° C., 30 s at 67° C. and 6 min at 68° C.
All sequence reactions were performed at Macrogen Inc., Seoul, South Korea. Sequence analysis was performed with Sequencher™ (Gene Codes Corporation) Vector NTI 11 (Invitrogen) and BioEdit™ (Tom Hall, Ibis Therapeutics). HCV sequences were retrieved from the European HCV database (euHCVdb; at the http: internet location //euhcvdb.ibcp.fr/euHCVdb/) and the Los Alamos HCV sequence database (LANL; at the http: Internet location //hcv.lanl.gov/content/hcv-db/index).
Genetic stability of NS5A recombinants after passage to naïve cells. Supernatant samples from transfection culture were passaged to naïve Huh7.5 cells and the complete ORF was sequenced after spread of infection in culture to check for further need of adaptation.

[3] = tested on: Huh7.5 cells; assay: HCV RNA titers by TaqMan real-time PCR; format: cell-based; details: for 1st passage Log(IU/mL): Table 1b, maximum HCV RNA titer, two values separated by slash = two independent passages
Method: (§3) To determine the efficiency of the developed system, HCV RNA titers are determined in IU/ml (international units/ml) with Taq-Man Real-Time-PCR and infectious titers are determined with a focus-forming units (FFU) method: in this method, infectivity titers are determined by infection of cell culture replicates with serial dilutions of virus containing supernatants and, following immuno-stainings for HCV antigens, counting of HCV-antigen positive cell foci. Alternatively the infectious titers are determined as 50% tissue culture infectious dose.
as §2

[4] = tested on: Huh7.5 cells; assay: Infectivity titers (FFU) in supernatant after RNA transfection or viral passage; format: cell-based; details: for 1st passage Log(FFU/mL): maximum infectivity titer, two values separated by slash = two independent passages; for Peak titers Transfection Log (FFUs/mL) / Peak titers Viral passage Log (FFUs/mL): Table 2; for Peak titers Transfection Log (FFUs/mL): maximum infectivity titer observed in transfection experiments; for Peak titers Viral passage Log (FFUs/mL): maximum infectivity titer observed in viral passage experiments
Method: as §3, §1, §2

[5] = tested on: QC69(7a) NS5A recombinant; assay: IFN-alpha 2b treatment of infected cultures; format: cell-based, hepatitis C virus; details: genotype 7a, isolate QC69 NS5A recombinant
Method: (§4) Huh7.5 cells were infected with J6/JFH1 with NS5A of the indicated isolate (or ISDR type). J6/JFH1 was included with two infectious doses to control for impact of dose variability. The infectious dose of other recombinants was in the range between. […] On day three cells were fixed and immunostained for NS3 expression. The number of single infected cells was determined by automated counting of individual wells. Values are shown as percentage infected cells compared to the average for non-treated controls of the given recombinant. Data were fitted to a sigmoidal dose-response curve with the equation Y=1/(1+10^((Log(EC50)−Log(IU/mL))*HillSlope)), where Y is the response in %.
(§5) 5×10^3 naïve Huh7.5 cells were plated per well in a poly-D-lysine coated 96-well plate (Nunc, Roskilde, D K) one day before infection with different recombinant viruses. Infectious doses were chosen to aim at 400-1000 single infected cells in non-treated wells at the end of the experiment. J6/JFH1 was included with two infectious doses (high and low) to control for impact of dose variability. The infectious dose of other recombinants was in the range between. […] On day three cells were fixed and immunostained for NS3 expression as described above. In parallel, cell viability was monitored with CellTiter™ 96 AQueous One Solution Cell Proliferation Assay (Promega, Madison, Wis. USA). The number of single infected cells was determined by automated counting of individual wells as described above.
(§6) On day three cells were fixed and immunostained for NS3 expression. The number of single infected cells was determined by automated counting (FIG. 15).

[6] = tested on: JFH1(2a) NS5A (J6/JFH1); assay: IFN-alpha 2b treatment of infected cultures; format: cell-based, hepatitis C virus; details: genotype 2a, isolate JFH1 NS5A (J6/JFH1)
Method: as §4, §5, §6

[7] = tested on: J4(1b) NS5A recombinant; assay: IFN-alpha 2b treatment of infected cultures; format: cell-based, hepatitis C virus; details: genotype 1b, isolate J4 NS5A recombinant
Method: as §4, §5, §6

[8] = tested on: J4(1b) NS5A ISDR mutant recombinant; assay: IFN-alpha 2b treatment of infected cultures; format: cell-based, hepatitis C virus; details: genotype 1b, isolate J4 NS5A
Method: as §4, §5, §6

[9] = tested on: SA13(5a) NS5A recombinant; assay: IFN-alpha 2b treatment of infected cultures; format: cell-based, hepatitis C virus; details: genotype 5a, isolate SA13 NS5A recombinant
Method: as §4, §5, §6

[10] = tested on: TN(1a) NS5A recombinant; assay: IFN-alpha 2b treatment of infected cultures; format: cell-based, hepatitis C virus; details: genotype 1a, isolate TN NS5A recombinant
Method: as §4, §5, §6

[11] = tested on: HK6a(6a) NS5A recombinant; assay: IFN-alpha 2b treatment of infected cultures; format: cell-based, hepatitis C virus; details: genotype 6a, isolate HK6a NS5A recombinant
Method: as §4, §5, §6

[12] = tested on: S52(3a) NS5A recombinant; assay: IFN-alpha 2b treatment of infected cultures; format: cell-based, hepatitis C virus; details: genotype 3a, isolate S52 NS5A recombinant
Method: as §4, §5, §6

[13] = tested on: ED43(4a) NS5A recombinant; assay: IFN-alpha 2b treatment of infected cultures; format: cell-based, hepatitis C virus; details: genotype 4a, isolate ED43 NS5A recombinant
Method: as §4, §5, §6

[14] = tested on: J6(2a) NS5A recombinant; assay: IFN-alpha 2b treatment of infected cultures; format: cell-based, hepatitis C virus; details: genotype 2a, isolate J6 NS5A recombinant
Method: as §4, §5, §6

[15] = tested on: H77C(1a) NS5A recombinant; assay: IFN-alpha 2b treatment of infected cultures; format: cell-based, hepatitis C virus; details: genotype 1a, isolate H77C NS5A recombinant
Method: as §4, §5, §6

ED43/JFH1(ED43-NS5A): ED43 Core-NS2/NS5A recombinant without mutations adaptive for ED43/JFH1, SEQ ID NO 51
spread / replication in culture ([1]; after transfection into Huh7.5 cells): never spread in culture

ED43/JFH12819,3269(ED43-NS5A)5270/7131: ED43 Core-NS2/NS5A recombinant with T5270C/A7131G, SEQ ID NO 193
spread in culture / to the majority of culture, day after transfection ([1]; Huh7.5 cells, after transfection of RNA transcripts): 17 days
percentage of culture infected [1]: 30%

ED43/JFH12819, 3269(ED43-NS5A): JFH1-based recombinant with Core-NS2 and NS5A of genotype 4a ED43, SEQ ID NO 52
Genetically stable [2]: No
1st passage Log(IU/mL) [3]: 7.1 Log(IU/mL)
Peak titers Viral passage Log (IU/mL) ([3]; Table 2, maximum HCV RNA titer in all passage samples analyzed): 7.1 Log (IU/mL)
1st passage Log(FFU/mL) ([4]; Table 1b): 1.8 Log(FFU/mL)
Peak titers Transfection Log (FFUs/mL) [4]: 2.0 Log (FFUs/mL)
Peak titers Viral passage Log (FFUs/mL) [4]: 1.8 Log (FFUs/mL)
percentage of culture infected [1]: 1%

HK6a/JFH11389, 1590(HK6a-NS5A)7161: HK6a Core-NS2/NS5A recombinant with T7161A, SEQ ID NO 57
Transfection Log(FFU/mL) ([4]; Table 1b, maximum infectivity titer after transfection, Core-NS2 and NS5A of same genotype): 2.7 Log(FFU/mL)
1st passage Log(FFU/mL) ([4]; Table 1b): 3.3 Log(FFU/mL)
Peak titers Transfection Log (FFUs/mL) [4]: 2.7 Log (FFUs/mL)
Peak titers Viral passage Log (FFUs/mL) [4]: 3.3 Log (FFUs/mL)

HK6a/JFH11389, 1590(HK6a-NS5A): JFH1-based recombinant with Core-NS2 and NS5A of genotype 6a HK6a, SEQ ID NO 56
1st passage Log(IU/mL) [3]: 7.0 Log(IU/mL)

IFN-α
IFN-α, EC50 (IU/mL), original [5]: 0.18 IU/mL
IFN-α, EC50 (IU/mL), original [6]: 0.25 IU/mL
IFN-α, EC50 (IU/mL), original [7]: 0.12 IU/mL
IFN-α, EC50 (IU/mL), 'Sensitive-type' ISDR mutant [8]: 0.12 IU/mL
IFN-α, EC50 (IU/mL), original [9]: 0.32 IU/mL
IFN-α, EC50 (IU/mL), original [10]: 0.28 IU/mL
IFN-α, EC50 (IU/mL), original [11]: 0.21 IU/mL
IFN-α, EC50 (IU/mL), original [12]: 0.27 IU/mL
IFN-α, EC50 (IU/mL), original [13]: 0.15 IU/mL
IFN-α, EC50 (IU/mL), original [14]: 0.12 IU/mL
IFN-α, EC50 (IU/mL), original [15]: 0.25 IU/mL
